Key:
[1] = target: EGFR WT (Homo sapiens (Human), UniProt P00533); experiment: TR-FRET assay for ERBB kinases; assay type: biochemical; conditions: geometric mean if measured more than once
Experimental: (§1) TR-FRET Assay for ERBB Kinases
(§2) All compounds and PROTACs were serially diluted in three-fold increments using 100% DMSO, followed by an intermediate 10-fold dilution using Buffer A (50 mM HEPES, pH 7.5, 50 mM NaCl, 10 mM MgCl2, 1 mM DTT, and 0.1% Pluronic F-68). […] Next, 10 uL of protein kinase in Buffer A was added to each well of the assay plate and pre-incubated with compound for 10 minutes. Kinase reactions were then initiated by addition of 5 uL substrate mix containing 3 mM ATP and 30 uM fluorescein-labeled Poly-GluTyr (Thermo Fisher, #PV3610) in Buffer A and allowed to proceed for 10 minutes at room temperature. Reactions were quenched by addition of a 5 uL mixture containing 5 nM LanthaScreen® Tb-pY20 Antibody (Thermo Fisher, #PV3552) and 40 mM EDTA in Buffer A. Assay plates were then read using a Synergy2 (Biotek Instruments, Winooski, Vt.) via excitation thru a 340/20 nm bandpass filter and emission collected thru 490/10 nm (donor) and 520/25 nm (acceptor) bandpass filters.

[2] = target: EGFR L858R/T790M (Homo sapiens (Human), UniProt P00533, L858R/T790M); experiment: TR-FRET assay for ERBB kinases; assay type: biochemical; conditions: geometric mean if measured more than once
Experimental: as §1, §2

[3] = target: EGFR L858R/T790M/C797S (Homo sapiens (Human), UniProt P00533, C797S/L858R/T790M); experiment: TR-FRET assay for ERBB kinases; assay type: biochemical; conditions: geometric mean if measured more than once
Experimental: as §1, §2

[4] = target: EGFR L858R/T790M/C797S triple mutant (H520*) (Homo sapiens (Human), UniProt P00533, C797S/L858R/T790M); experiment: EGFR protein degradation assay (Western blot); assay type: cell-based; conditions: 72 hours, 300 nM to 10 nM
Experimental: (§3) EGFR Protein Degradation assay
Cells were incubated overnight at 37° C., 5% CO2 prior to compound addition. A 10 mM compound stock in DMSO was serially diluted in DMSO to provide the following stock concentrations: 1, 0.3, 0.1, 0.03 and 0.01 mM. An appropriate volume of each compound dilution, together with a DMSO vehicle control, was added to media to provide a 2× compound solution. […] At the end of the compound treatment, cells were washed once with ice-cold phosphate-buffered saline (PBS) and treated with lysis solution (1× lysis buffer, Cell Signaling Technologies (CST #9803) supplemented with Piarce™ protease inhibitors, #A32953, Thermo Fisher Scientific, TFS). Lysates were collected and clarified of cell debris by spinning at 10K rpm for 10 minutes. A specific volume of supernatant was retrieved for protein quantification (Pierce™ BCA kit, TFS #23225) and for Western analysis. Loading buffer supplemented with EDTA and reducing agent was added to each supernatant. A specific volume of supernatant (determined by protein assay: […] loaded per sample) was loaded into a NuPAGE™ 4-12% Bis-Tris gel (TFS). Samples were run at 165V in MOPS running buffer for 2 hours and then transferred to PVDF blotting membrane using a dry blotting system (iBlot2, TFS). Membranes were blocked in Tris-buffered saline supplemented with Tween, 0.1% (TBST) containing 5% non-fat dry milk, (AmericanBio). Following block, membranes were washed once with TBST. […] Membranes were washed 3× with TBST prior to addition of secondary antibody (1:10 000, anti-rabbit HRP-linked, CST #7074) in TBST with 3% BSA and then incubated at room temperature for one hour. Membranes were then washed 3× with TBS and signal developed by exposure to developer (SuperSignal West Femto, TFS) for 5 minutes. Membranes were then immediately imaged using a BioRad Chemidoc.

[5] = target: EGFR Exon20NPG (Homo sapiens (Human), UniProt P00533, INS770NPG); experiment: TR-FRET assay for ERBB kinases; assay type: biochemical; conditions: geometric mean if measured more than once
Experimental: as §1
All compounds and PROTACs were serially diluted in three-fold increments using 100% DMSO, followed by an intermediate 10-fold dilution using Buffer A (50 mM HEPES, pH 7.5, 50 mM NaCl, 10 mM MgCl2, 1 mM DTT, and 0.1% Pluronic F-68). Two microliters of serially diluted compound or PROTAC were then transferred to black 384-well Proxiplates (PerkinElmer, #6008260) using an Integra Viaflo96. Next, 10 uL of protein kinase in Buffer A was added to each well of the assay plate and pre-incubated with compound for 10 minutes. Kinase reactions were then initiated by addition of 5 uL substrate mix containing 3 mM ATP and 30 uM fluorescein-labeled Poly-GluTyr (Thermo Fisher, #PV3610) in Buffer A and allowed to proceed for 10 minutes at room temperature. Reactions were quenched by addition of a 5 uL mixture containing 5 nM LanthaScreen® Tb-pY20 Antibody (Thermo Fisher, #PV3552) and 40 mM EDTA in Buffer A. Assay plates were then read using a Synergy2 (Biotek Instruments, Winooski, Vt.) via excitation thru a 340/20 nm bandpass filter and emission collected thru 490/10 nm (donor) and 520/25 nm (acceptor) bandpass filters.

[6] = target: EGFR L858R/T790M double mutant (H1975) (Homo sapiens (Human), UniProt P00533, L858R/T790M); experiment: EGFR protein degradation assay (Western blot); assay type: cell-based; conditions: 72 hours, 300 nM to 10 nM
Experimental: as §3
Cells expressing the appropriate form of EGFR were seeded in 6-well plates (300,000 cells per well) and allowed to adhere to the plate overnight. […] To harvest cells, media was removed and cells were washed once with ice-cold phosphate-buffered saline (PBS) prior to the addition of 400 μl lysis buffer (Cell Signaling Technology) supplemented with a protease inhibitor cocktail (Thermo Scientific). Cells were scraped from the plate and the cell lysate transferred to an Eppendorf tube and then clarified by a single spin at 10 000 rpm for 10 minutes. The protein concentration of each lysate was determined (BCA kit, Thermo Scientific) prior to the addition of loading buffer (Invitrogen) and reducing agent (Invitrogen). 10 μg protein of each lysate was loaded on an SDS/PAGE gel and run at 165V for 2 hours. Following transfer to a PVDF membrane (iBlot2, Thermo Fisher Scientific), the membrane was blocked in Tris-buffered saline containing 0.1% Tween-20 (TBS-T) and supplemented with 5% powdered milk for 1 hour. Membranes were then probed with EGFR and tubulin (loaded control) primary antibodies in TBS-T containing 3% bovine serum albumin (BSA) overnight at 4° C. Membranes were washed thrice with TBS-T before incubation with secondary antibody in TBS-T containing 3% bovine serum albumin (BSA) and incubated for 1 hour at room temperature. Following 3 further washes with TBS, membrane proteins of interest were detected by enzyme-linked chemiluminescence (ECL) using a Chemidoc (Bio-Rad).

EGFR L858R/T790M, sequence (P00533 25-1210 T790M/L858R): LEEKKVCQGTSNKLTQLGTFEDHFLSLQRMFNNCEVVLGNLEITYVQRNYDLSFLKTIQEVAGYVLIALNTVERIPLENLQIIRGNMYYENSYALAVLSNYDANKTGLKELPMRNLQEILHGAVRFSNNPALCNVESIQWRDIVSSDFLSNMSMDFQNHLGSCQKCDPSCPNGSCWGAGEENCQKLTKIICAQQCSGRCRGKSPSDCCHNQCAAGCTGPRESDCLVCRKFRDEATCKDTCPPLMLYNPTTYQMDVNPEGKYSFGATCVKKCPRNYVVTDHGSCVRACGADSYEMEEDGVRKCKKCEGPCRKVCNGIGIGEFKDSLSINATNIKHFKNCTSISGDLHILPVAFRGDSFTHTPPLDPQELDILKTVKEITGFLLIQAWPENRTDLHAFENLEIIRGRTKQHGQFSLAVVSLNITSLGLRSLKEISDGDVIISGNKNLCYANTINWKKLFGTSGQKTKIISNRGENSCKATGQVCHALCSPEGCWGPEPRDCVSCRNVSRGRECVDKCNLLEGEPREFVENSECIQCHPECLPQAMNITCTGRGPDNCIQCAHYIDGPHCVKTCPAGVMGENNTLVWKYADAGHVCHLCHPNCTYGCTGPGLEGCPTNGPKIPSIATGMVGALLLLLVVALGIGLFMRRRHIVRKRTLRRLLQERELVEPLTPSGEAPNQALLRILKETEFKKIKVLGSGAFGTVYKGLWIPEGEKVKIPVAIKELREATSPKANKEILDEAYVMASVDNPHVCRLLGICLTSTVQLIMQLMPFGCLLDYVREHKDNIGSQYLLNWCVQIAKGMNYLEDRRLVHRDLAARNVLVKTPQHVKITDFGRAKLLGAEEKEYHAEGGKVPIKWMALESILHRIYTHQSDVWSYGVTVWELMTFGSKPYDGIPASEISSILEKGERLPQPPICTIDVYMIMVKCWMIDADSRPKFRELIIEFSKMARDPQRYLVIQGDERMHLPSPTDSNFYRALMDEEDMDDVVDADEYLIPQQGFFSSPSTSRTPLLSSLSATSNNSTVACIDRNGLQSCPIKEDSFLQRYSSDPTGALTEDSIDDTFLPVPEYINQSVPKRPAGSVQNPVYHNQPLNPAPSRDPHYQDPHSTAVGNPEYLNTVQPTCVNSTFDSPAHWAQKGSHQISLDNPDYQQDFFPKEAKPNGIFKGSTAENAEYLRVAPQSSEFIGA
EGFR L858R/T790M double mutant (H1975), sequence (P00533 25-1210 T790M/L858R): as above
EGFR WT, sequence (P00533 25-1210): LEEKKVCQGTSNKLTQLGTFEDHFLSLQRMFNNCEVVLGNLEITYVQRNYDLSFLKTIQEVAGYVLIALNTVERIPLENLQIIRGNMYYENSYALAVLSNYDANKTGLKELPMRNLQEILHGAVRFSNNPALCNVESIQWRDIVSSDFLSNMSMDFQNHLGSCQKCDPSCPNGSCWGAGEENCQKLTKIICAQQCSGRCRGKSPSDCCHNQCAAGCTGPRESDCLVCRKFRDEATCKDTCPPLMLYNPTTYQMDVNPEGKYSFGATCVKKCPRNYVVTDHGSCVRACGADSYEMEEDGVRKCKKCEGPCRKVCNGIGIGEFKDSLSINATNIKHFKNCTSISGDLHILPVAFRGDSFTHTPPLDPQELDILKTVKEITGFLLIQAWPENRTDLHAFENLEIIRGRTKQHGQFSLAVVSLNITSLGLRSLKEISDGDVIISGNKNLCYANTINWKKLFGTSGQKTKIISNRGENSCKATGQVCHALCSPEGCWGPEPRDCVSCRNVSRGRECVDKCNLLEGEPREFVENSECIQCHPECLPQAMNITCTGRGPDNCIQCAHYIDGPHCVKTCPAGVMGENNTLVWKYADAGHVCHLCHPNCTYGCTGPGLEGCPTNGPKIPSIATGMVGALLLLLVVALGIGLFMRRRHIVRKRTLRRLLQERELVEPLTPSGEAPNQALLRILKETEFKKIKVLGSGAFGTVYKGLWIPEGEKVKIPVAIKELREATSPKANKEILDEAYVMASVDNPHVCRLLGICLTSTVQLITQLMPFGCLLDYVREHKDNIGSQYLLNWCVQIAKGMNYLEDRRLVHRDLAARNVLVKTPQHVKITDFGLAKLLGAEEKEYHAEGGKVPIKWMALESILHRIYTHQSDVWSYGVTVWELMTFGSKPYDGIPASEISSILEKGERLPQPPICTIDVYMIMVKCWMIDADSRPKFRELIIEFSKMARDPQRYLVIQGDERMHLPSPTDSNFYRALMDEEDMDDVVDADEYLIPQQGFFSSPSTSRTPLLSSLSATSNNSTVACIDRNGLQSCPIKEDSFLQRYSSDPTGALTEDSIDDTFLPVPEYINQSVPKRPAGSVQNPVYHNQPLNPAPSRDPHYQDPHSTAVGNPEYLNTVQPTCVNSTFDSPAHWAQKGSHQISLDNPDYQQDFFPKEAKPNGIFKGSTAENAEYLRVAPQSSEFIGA
EGFR Exon20NPG, sequence (P00533 other isoform, or with tags, fused parts or gaps del 1-694/ins NPG behind 770 limits assumed): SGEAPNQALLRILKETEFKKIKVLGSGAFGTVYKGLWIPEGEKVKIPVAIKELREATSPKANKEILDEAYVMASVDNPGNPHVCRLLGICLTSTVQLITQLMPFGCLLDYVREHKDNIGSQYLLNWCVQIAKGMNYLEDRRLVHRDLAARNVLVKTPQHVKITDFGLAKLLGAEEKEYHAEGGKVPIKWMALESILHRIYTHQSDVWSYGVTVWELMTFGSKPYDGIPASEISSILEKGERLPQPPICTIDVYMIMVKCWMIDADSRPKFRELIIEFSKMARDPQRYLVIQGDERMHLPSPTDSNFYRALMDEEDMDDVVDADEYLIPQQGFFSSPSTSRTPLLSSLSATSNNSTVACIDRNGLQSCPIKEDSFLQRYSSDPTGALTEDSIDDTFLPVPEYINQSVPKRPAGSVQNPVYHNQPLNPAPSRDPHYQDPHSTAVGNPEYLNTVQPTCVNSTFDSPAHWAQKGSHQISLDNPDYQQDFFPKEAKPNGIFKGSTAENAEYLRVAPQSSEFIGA

| SMILES | IC50 [1] [nM] | IC50 [2] [nM] | IC50 [3] [nM] | EGFR protein remaining, EGFR L858R/T790M/C797S triple mutant [4] | IC50 [5] [nM] | EGFR protein remaining, EGFR L858R/T790M double mutant [6] |
| --- | --- | --- | --- | --- | --- | --- |
| O=C1CCC(N2C(=O)c3ccc(N4CCC(CN5CCC(OCCCc6cccc7c6C(=O)N(C(C(=O)Nc6nccs6)c6cc(F)ccc6O)C7)CC5)CC4)cc3C2=O)C(=O)N1 (stereo not drawn) [compound 297] | 1800 | 1800 | 310 | B (≤80% and >50% EGFR protein remaining after 72 hours of incubation with the test compound at a concentration between 300 nM and 10 nM) | – | – |
| O=C1CCC(N2C(=O)c3ccc(N4CCC(CN5CCC(OC/C=C/c6cccc7c6C(=O)N(C(C(=O)Nc6nccs6)c6cc(F)ccc6O)C7)CC5)CC4)cc3C2=O)C(=O)N1 (stereo not drawn) [compound 298] | 1600 | 1400 | 540 | C (>80% EGFR protein remaining after 72 hours of incubation with the test compound at a concentration of 300 nM) | – | – |
| O=C1CCC(N2C(=O)c3cccc(NCCOCCOCCOCCOCCOCCOCCCc4cccc5c4C(=O)N(C(C(=O)Nc4nccs4)c4cc(F)ccc4O)C5)c3C2=O)C(=O)N1 (stereo not drawn) [compound 300] | 2700 | 20000 | 3100 | C (>80% EGFR protein remaining after 72 hours of incubation with the test compound at a concentration of 300 nM) | – | – |
| O=C1CCC(N2C(=O)c3ccc(N4CCC(CN5CCC(OCC#Cc6cccc7c6C(=O)N(C(C(=O)Nc6nccs6)c6cc(F)ccc6O)C7)CC5)CC4)cc3C2=O)C(=O)N1 (stereo not drawn) [compound 290] | 1100 | 2700 | 140 | B (≤80% and >50% EGFR protein remaining after 72 hours of incubation with the test compound at a concentration between 300 nM and 10 nM) | – | – |
| COC1CCN(c2nccc(Nc3cc4c(cn3)nc(COCCCN3CCN(CCCOCC(=O)N[C@H](C(=O)N5C[C@H](O)C[C@H]5C(=O)N[C@@H](C)c5ccc(-c6scnc6C)cc5)C(C)(C)C)CC3)n4C(C)C)n2)CC1 [Example 85, (2S,4R)-4-hydroxy-1-((S)-2-(2-(3-(4-(3-((1-isopropyl-6-((2-(4-methoxypiperidin-1-yl)pyrimidin-4-yl)amino)-1H-imidazo[4,5-c]pyridin-2-yl)methoxy)propyl)piperazin-1-yl)propoxy)acetamido)-3,3-dimethylbutanoyl)-N—((S)-1-(4-(4-methylthiazol-5-yl)phenyl)ethyl)pyrrolidine-2-carboxamide] | > 30000 | 16000 | 3900 | – | > 30000 | C (>80% EGFR protein remaining after 72 hours of incubation with the test compound at a concentration of 300 nM) |
| COC1CCN(c2nccc(Nc3cc4c(cn3)nc(COCCOCCN3CCN(CCOc5ccc6c(c5)C(=O)N(C5CCC(=O)NC5=O)C6=O)CC3)n4C(C)C)n2)CC1 (stereo not drawn) [compound 88] | > 30000 | 11000 | 9400 | – | 3100 | C (>80% EGFR protein remaining after 72 hours of incubation with the test compound at a concentration of 300 nM) |
| O=C1CCC(N2C(=O)c3ccc(OCCOCCOCCOCCOCCOCC#Cc4cccc5c4C(=O)N([C@@H](C(=O)Nc4nccs4)c4cc(F)ccc4O)C5)cc3C2=O)C(=O)N1 (stereo partly drawn) [compound 263] | 8600 | 11000 | 790 | – | 12000 | C (>80% EGFR protein remaining after 72 hours of incubation with the test compound at a concentration of 300 nM) |
| O=C1CCC(N2C(=O)c3ccc(OCCN4CCN(CCCC#Cc5cccc6c5C(=O)N(C(C(=O)Nc5nccs5)c5cc(F)ccc5O)C6)CC4)cc3C2=O)C(=O)N1 (stereo not drawn) [compound 94] | 2100 | 6000 | 1800 | – | 1500 | C (>80% EGFR protein remaining after 72 hours of incubation with the test compound at a concentration of 300 nM) |
